Read-outs that look alike come from different tables or passages of the source.
Test system: T1, LipS.g
T1 construct: native extracellular enzyme purified from culture supernatant (heat, ammonium sulfate, Sephadex S-200); about 50 kDa SDS-PAGE, 53,262 Da MALDI-TOF
Assay: pH-stat titrimetry, Lineweaver-Burk
Type: biochemical, Streptomyces gobitricini
Settings: pH 9.0, 50°C, triglyceride emulsion, apparent Km
Description: pH-stat titrimetry, Lineweaver-Burk on LipS.g

CCCCCCCC/C=C\CCCCCCCC(=O)OCC(COC(=O)CCCCCCC/C=C\CCCCCCCC)OC(=O)CCCCCCC/C=C\CCCCCCCC [TC18, triolein]
Km (read-out: TC18): 6.45 ± 0.289 mM

CCCC(=O)OCC(COC(=O)CCC)OC(=O)CCC [TC4, Tributyrin]
Km (read-out: Lipase activity (%) / TC4): 26.7 ± 0.063 mM

CCCCCCCC(=O)OCC(COC(=O)CCCCCCC)OC(=O)CCCCCCC [TC8, trioctanoin]
Km (read-out: TC8): 13.22 ± 0.106 mM

Source: publication PMC12122756, “Versatile biocatalyst: lipase from Streptomyces gobitricini for ester synthesis and detergent innovation” (Frontiers in Bioengineering and Biotechnology, 2025)
